# Reference: ChEMBL document CHEMBL1201862, “PubChem BioAssay data set” (2004)
#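 Five compound concentrations were applied to cells in 96-well plates for 48 hours; endpoints were derived by simple linear interpolation of the resulting dose-response curve. GI50: concentration for 50% inhibition of growth.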 Active and inactive are the calls of the source. Cut-off read from the data, not from the text of the source: active = GI50 up to about 1.1 µM and inactive = higher.
# How the values were obtained:
# Assay in all cases: NCI anticancer screen, dose series, 48 h
# MDA-N = system: MDA-N
# BT-549 = system: BT-549
# DLD-1 = system: DLD-1
# KM-20L2 = system: KM-20L2
# M19-MEL = system: M19-MEL
# DMS-273 = system: DMS-273
# XF498 = system: XF498
Structure (SMILES),GI50 (MDA-N),GI50 (BT-549),also measured
C#CC1(O)CCCCCCCCC2(CCCCCCCC1)OCCO2,20.9 µM (inactive),–,–
COC(=O)c1ccccc1CC(Cc1ccccc1)C(=O)OC (stereo not given),–,> 100 µM (inactive),–
COc1ccc(S(=O)(=O)c2nnc(S(=O)(=O)Cc3ccccc3)s2)cc1,–,27 µM (inactive),–
Oc1ccc(Cl)cc1C1=NC(/N=C\c2ccccc2)=NC(c2ccccc2)C1 (stereo not given),–,> 100 µM (inactive),–
NCCCN(CCCCN(CCCN)Cc1ccc2ccccc2c1)Cc1ccc2ccccc2c1,1.88 µM (inactive),2.23 µM (inactive),–
CCCCNC(=O)c1cc(S(=O)(=O)n2ccnc2O)c(SC)cc1Cl,> 100 µM (inactive),> 100 µM (inactive),–
O=C1c2ccccc2C(=O)c2sc(Nc3ccccc3C(F)(F)F)nc21,12.5 µM (inactive),–,–
Cc1cc(-c2nc3c(F)cccc3s2)ccc1N,70.1 µM (inactive),66.1 µM (inactive),–
c1ccc2c(c1)CC1c3[nH]c4ccccc4c3CCN21 (stereo not given),> 10 µM (inactive),> 10 µM (inactive),–
C=CCOC1OC(CS(=O)(=O)O)C(O)C(O)C1O (stereo not given),> 100 µM (inactive),> 100 µM (inactive),–
CCOC(=O)N1c2ccccc2N(C(=O)OCC)C1CC(=O)/C=C/c1ccccc1,3.57 µM (inactive),2.89 µM (inactive),–
Cc1ccc(-c2ccc(Nc3c4ccccc4nc4ccccc34)cc2)cn1,6.07 µM (inactive),–,–
COC(=O)CC1(O)C(C=C(C)C)C(C(=O)OC)C(=O)C(C(=O)OC)C1C(=O)OC (stereo not given),> 100 µM (inactive),11.4 µM (inactive),–
CC(C)(C)OC(=O)NC(Cc1ccccc1)C(=O)OCN1C(=O)C2C3C=CC(C2C1=O)C1C2C(=O)N(COC(=O)C(Cc4ccccc4)NC(=O)OC(C)(C)C)C(=O)C2C31 (stereo not given),–,18.6 µM (inactive),–
Cc1cc2c(cc1-c1cc3c(cc1C)C(C(C)C)=C(O)C(=O)/C3=C\Nc1nc(-c3ccccc3)cs1)/C(=C/Nc1nc(-c3ccccc3)cs1)C(=O)C(O)=C2C(C)C,41.1 µM (inactive),23.8 µM (inactive),–
CN1CCN(c2ccc3nc(C4=C(O)C(=O)[C@@H]5C(=C4O)N=C(CO)N5C)[nH]c3n2)CC1,–,> 100 µM (inactive),–
O=C(O)c1cccc2c1/C(=N/Nc1ccccc1)CC2,> 100 µM (inactive),–,–
CCOc1ccc(NC(=S)N/C=C(/C(C)=O)C(=O)Nc2ccccc2C)cc1,> 100 µM (inactive),> 100 µM (inactive),–
COC1(OC)c2no[n+]([O-])c2CCC1O (stereo not given),> 100 µM (inactive),–,–
COc1cccc(C2c3cc4c(cc3OC(NNS(=O)(=O)c3ccc(C)cc3)C2C)OCO4)c1O (stereo not given),24.5 µM (inactive),19.7 µM (inactive),–
C/C=C(/C)C(=O)O[C@H]1[C@H]2[C@@H]([C@@H](OC(C)=O)[C@H](C)C(=O)[C@@]34C[C@@H](C)C(=O)[C@]3(/C=C(\C)[C@H]1OC(C)=O)O4)C2(C)C,1.27 µM (inactive),2.84 µM (inactive),–
CC(=O)c1ccccc1NP(=O)(c1ccccc1)c1ccccc1,36.9 µM (inactive),> 100 µM (inactive),–
O=C1NN=C2C=C(c3ccc(Cl)cc3)CC(c3cccc(Br)c3)C12 (stereo not given),> 100 µM (inactive),> 100 µM (inactive),–
COC(=O)C1=C(O)CCCC(C2CCCCC(=O)C2C(=O)OC)=C1 (stereo not given),> 100 µM (inactive),78.9 µM (inactive),–
CC[C@@H]1CC[C@@H]2[C@H](CC[C@]3(C)[C@@H](O)CC[C@@H]23)[C@H]1CO,> 100 µM (inactive),> 100 µM (inactive),–
COc1ccc2nc3c4c(nccc4c2c1)-c1ncccc1C3=O,0.0631 µM (active),0.109 µM (active),–
Nc1ccc(C(=O)NN2C(=O)C(Cl)C2c2cccc(O)c2)cc1 (stereo not given),–,–,GI50 (DLD-1): 14.4 µM (inactive); GI50 (KM-20L2): 17.1 µM (inactive); GI50 (M19-MEL): 21.5 µM (inactive); GI50 (DMS-273): 11 µM (inactive)

Structure (SMILES),GI50 (MDA-N),GI50 (BT-549),also measured
O=C(NC(=S)Nc1ccc(Br)cc1)c1ccc2c(c1)Sc1ccccc1O2,> 100 µM (inactive),> 100 µM (inactive),–
COc1cccc(-c2cc(O)c3cc(N4CCN(C)CC4)ccc3n2)c1,0.265 µM (active),4.46 µM (inactive),–
C=C1CC(CC)(CCN2C(=O)c3ccccc3C2=O)OC1=O (stereo not given),–,–,GI50 (DLD-1): 17.9 µM (inactive); GI50 (XF498): 13.4 µM (inactive); GI50 (KM-20L2): 15.8 µM (inactive); GI50 (DMS-273): 11.4 µM (inactive)
CC1=NN(C(=O)CSc2nc3ccc(I)cc3c(=O)n2Cc2ccccc2)C(=O)C1,31.2 µM (inactive),–,–
COc1cc(OC)c(C2c3cc4c(cc3OC(N3CCCC3)C2C)OCO4)c(OC)c1 (stereo not given),15 µM (inactive),–,–
CCCCCC(C(O)C#N)C(O)(C(F)(F)F)C(F)(F)F (stereo not given),> 10 µM (inactive),> 10 µM (inactive),–
Cc1cc2c(cc1C)NC1=C(O)C(c3c[nH]c4ccc(COc5ccccc5)cc34)OC1=N2 (stereo not given),> 100 µM (inactive),> 100 µM (inactive),–
O=C1/C(=C/c2cccc([N+](=O)[O-])c2)N=C(c2ccccc2)N1c1nc2c(Cl)cc(Cl)cc2s1,18.4 µM (inactive),30.5 µM (inactive),–
CCCCCCCC(CC(=O)NC(CO)C(=O)NC(CO)CC(C)C)OC(=O)CC(CCCCCCC)OC(=O)CC(CCCCCCC)OC1OC(C)C(O)C(OC2OC(C)C(OC(C)=O)C(O)C2O)C1O (stereo not given),3.4 µM (inactive),6.17 µM (inactive),–
COc1ccc(/C=N/NS(=O)(=O)c2ccc(/C=C3\NC(=O)N(C)C3=O)cc2)cc1,> 100 µM (inactive),> 100 µM (inactive),–
N/C(S)=N/N=C/c1cc(CN2CCOCC2)c(N)cn1,56.1 µM (inactive),78.5 µM (inactive),–
N=C(N)NCCCC(NCc1c2ccccc2nc2ccccc12)C(=O)O (stereo not given),37.2 µM (inactive),30.9 µM (inactive),GI50 (DLD-1): 17.3 µM (inactive); GI50 (KM-20L2): 29.4 µM (inactive); GI50 (M19-MEL): 58.7 µM (inactive); GI50 (DMS-273): 31.3 µM (inactive)
CC(=O)Oc1cccc2c1C(=O)CCCC2,–,> 100 µM (inactive),–
CC1=NN(c2cccc(Cl)c2)C2(SCC(=O)N2c2nc3ccccc3s2)C1=CC=Cc1ccccc1 (stereo not given),34.1 µM (inactive),–,–
CC1=CC(O)(c2ccccc2)C(N2CCOCC2)N1O (stereo not given),> 100 µM (inactive),> 100 µM (inactive),–
OC(COc1cccc2ccccc12)CN1CCOCC1 (stereo not given),> 100 µM (inactive),> 100 µM (inactive),–
CCNC(=O)c1cc(Cl)ccc1NC(=O)C12CC3CC(CC(C3)C1)C2,22.5 µM (inactive),36.6 µM (inactive),–
O=c1oc2ccc([N+](=O)[O-])cc2c(Nc2ccc3c(c2)Oc2ccccc2O3)c1[N+](=O)[O-],36.2 µM (inactive),30.4 µM (inactive),–
Cc1n[nH]c(=O)n1/N=C/c1cccnc1,> 100 µM (inactive),> 100 µM (inactive),–
Cc1c(N2C(=O)/C(=C/c3ccc(N(CCC#N)CCC#N)cc3)N=C2c2ccccc2)c(=O)n(-c2ccccc2)n1C,> 100 µM (inactive),> 100 µM (inactive),–
CN(C)c1ccc(/C=C/C(=O)CC(=O)/C=C/c2ccc(N(C)C)cc2)cc1,83.2 µM (inactive),–,–
COc1ccc2c(O)c3[n+](cc2c1OC)CCc1cc2c(cc1-3)OCO2,33.6 µM (inactive),72.4 µM (inactive),–
CSCCC(NCc1c(O)ccc2ccc(=O)oc12)C(=O)O (stereo not given),> 100 µM (inactive),–,–
CCOP(=O)(/C=C/n1cnc2c(=O)n(C(C)=O)c(N)nc21)OCC,> 100 µM (inactive),> 100 µM (inactive),–
CCOC(=O)c1cc(C2CCN(Cc3ccccc3)C2=O)c(C(=O)C(=[N+]=[N-])C(C)=O)[nH]1 (stereo not given),–,> 100 µM (inactive),–
CC1(C)OC2OC(C(COS(=O)(=O)C(F)(F)F)N=[N+]=[N-])C(OC(=O)c3ccccc3)C2O1 (stereo not given),> 100 µM (inactive),> 100 µM (inactive),–
C1CC[N+]23CCCC[N+]2(C1)CCCC3 (stereo not given),–,–,GI50 (DLD-1): > 100 µM (inactive); GI50 (KM-20L2): > 100 µM (inactive); GI50 (M19-MEL): > 100 µM (inactive)
